Laboratory results published in the supplement of paper PMC10307832.

What was measured:
Experiment in all cases: relative viability (nuclei count vs DMSO), 5 days (fraction); higher = more cells survive
EMC-BAC-2 = test system: EMC-BAC-2
In short: (§1)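 Lung cancer cell lines were seeded in 1536-well plates and dosed by pin tool the next day, with either a single drug or a fixed anchor-drug dose combined with five library-drug doses (not always all listed) spaced in √10 steps. Five days later, one step fixed the cells and stained their nuclei (final 0.05% Triton X-100, 1% formaldehyde, 1 ug/ml Hoechst), and nuclei were counted on 4× images. Relative viability is the nuclei count in treated wells divided by the count in vehicle wells, and each value is the median of duplicate plates.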

HOP-62 = test system: HOP-62
In short: as §1

NCI-H1975 = test system: NCI-H1975
In short: as §1

NCI-H322M = test system: NCI-H322M
In short: as §1

HCC-78 = test system: HCC-78
In short: as §1

NCI-H2085 = test system: NCI-H2085
In short: as §1

LXF-289 = test system: LXF-289
In short: as §1

HCC-15 = test system: HCC-15
In short: as §1

NCI-H522 = test system: NCI-H522
In short: as §1

NCI-H2126 = test system: NCI-H2126
In short: as §1

NCI-H1755 = test system: NCI-H1755
In short: as §1

UMC-11 = test system: UMC-11
In short: as §1

NCI-H1915 = test system: NCI-H1915
In short: as §1

NCI-H2023 = test system: NCI-H2023
In short: as §1

NCI-H441 = test system: NCI-H441
In short: as §1

COR-L 105 = test system: COR-L 105
In short: as §1

ChaGo-K-1 = test system: ChaGo-K-1
In short: as §1

ABC-1 = test system: ABC-1
In short: as §1

CAL-12T = test system: CAL-12T
In short: as §1

NCI-H3122 = test system: NCI-H3122
In short: as §1

NCI-H358 = test system: NCI-H358
In short: as §1

NCI-H1993 = test system: NCI-H1993
In short: as §1

NCI-H1666 = test system: NCI-H1666
In short: as §1

EPLC-272H = test system: EPLC-272H
In short: as §1

C[C@@H]1CN(CC(=O)Nc2ccc3c(c2)Cc2cccc(-c4cc(=O)cc(N5CCOCC5)o4)c2S3)C[C@H](C)O1 + N=C(N)NC(=N)NCCc1ccccc1 [Phenformin] (partner 250 µM)
relative viability (EMC-BAC-2; first compound 0.04 µM): 0.56 | relative viability (EMC-BAC-2; first compound 0.1265 µM): 0.566 | relative viability (EMC-BAC-2; first compound 0.4 µM): 0.495 | relative viability (EMC-BAC-2; first compound 4 µM): 0.513 | relative viability (HOP-62; first compound 0.04 µM): 0.613 | relative viability (HOP-62; first compound 0.1265 µM): 0.689 | relative viability (HOP-62; first compound 0.4 µM): 0.715 | relative viability (HOP-62; first compound 4 µM): 0.615 | relative viability (NCI-H1975; first compound 0.04 µM): 0.437 | relative viability (NCI-H1975; first compound 0.1265 µM): 0.39 | relative viability (NCI-H1975; first compound 0.4 µM): 0.393 | relative viability (NCI-H1975; first compound 4 µM): 0.332 | relative viability (NCI-H322M; first compound 0.04 µM): 0.701 | relative viability (NCI-H322M; first compound 0.1265 µM): 0.74 | relative viability (NCI-H322M; first compound 0.4 µM): 0.729 | relative viability (NCI-H322M; first compound 4 µM): 0.691 | relative viability (HCC-78; first compound 0.04 µM): 0.656 | relative viability (HCC-78; first compound 0.1265 µM): 0.661 | relative viability (HCC-78; first compound 0.4 µM): 0.658 | relative viability (HCC-78; first compound 4 µM): 0.619 | relative viability (NCI-H2085; first compound 0.04 µM): 0.763 | relative viability (NCI-H2085; first compound 0.1265 µM): 0.732 | relative viability (NCI-H2085; first compound 0.4 µM): 0.694 | relative viability (NCI-H2085; first compound 4 µM): 0.595 | relative viability (LXF-289; first compound 0.04 µM): 0.482 | relative viability (LXF-289; first compound 0.1265 µM): 0.517 | relative viability (LXF-289; first compound 0.4 µM): 0.549 | relative viability (LXF-289; first compound 4 µM): 0.517 | relative viability (HCC-15; first compound 0.04 µM): 0.479 | relative viability (HCC-15; first compound 0.1265 µM): 0.437 | relative viability (HCC-15; first compound 0.4 µM): 0.401 | relative viability (HCC-15; first compound 4 µM): 0.363 | relative viability (NCI-H522; first compound 0.04 µM): 0.72 | relative viability (NCI-H522; first compound 0.1265 µM): 0.718 | relative viability (NCI-H522; first compound 0.4 µM): 0.635 | relative viability (NCI-H522; first compound 4 µM): 0.608 | relative viability (NCI-H2126; first compound 0.04 µM): 0.573 | relative viability (NCI-H2126; first compound 0.1265 µM): 0.528 | relative viability (NCI-H2126; first compound 0.4 µM): 0.531 | relative viability (NCI-H2126; first compound 4 µM): 0.454 | relative viability (NCI-H1755; first compound 0.04 µM): 0.611 | relative viability (NCI-H1755; first compound 0.1265 µM): 0.603 | relative viability (NCI-H1755; first compound 0.4 µM): 0.698 | relative viability (NCI-H1755; first compound 4 µM): 0.586 | relative viability (UMC-11; first compound 0.04 µM): 0.363 | relative viability (UMC-11; first compound 0.1265 µM): 0.33 | relative viability (UMC-11; first compound 0.4 µM): 0.338 | relative viability (UMC-11; first compound 4 µM): 0.288 | relative viability (NCI-H1915; first compound 0.04 µM): 0.379 | relative viability (NCI-H1915; first compound 0.1265 µM): 0.388 | relative viability (NCI-H1915; first compound 0.4 µM): 0.382 | relative viability (NCI-H1915; first compound 4 µM): 0.362 | relative viability (NCI-H2023; first compound 0.04 µM): 0.458 | relative viability (NCI-H2023; first compound 0.1265 µM): 0.432 | relative viability (NCI-H2023; first compound 0.4 µM): 0.385 | relative viability (NCI-H2023; first compound 4 µM): 0.344 | relative viability (NCI-H441; first compound 0.04 µM): 0.913 | relative viability (NCI-H441; first compound 0.1265 µM): 0.897 | relative viability (NCI-H441; first compound 0.4 µM): 0.682 | relative viability (NCI-H441; first compound 4 µM): 0.722 | relative viability (COR-L 105; first compound 0.04 µM): 0.503 | relative viability (COR-L 105; first compound 0.1265 µM): 0.444 | relative viability (COR-L 105; first compound 0.4 µM): 0.552 | relative viability (COR-L 105; first compound 4 µM): 0.468 | relative viability (ChaGo-K-1; first compound 0.04 µM): 0.48 | relative viability (ChaGo-K-1; first compound 0.1265 µM): 0.45 | relative viability (ChaGo-K-1; first compound 0.4 µM): 0.474 | relative viability (ChaGo-K-1; first compound 4 µM): 0.411 | relative viability (ABC-1; first compound 0.1265 µM): 0.256 | relative viability (ABC-1; first compound 0.4 µM): 0.273 | relative viability (ABC-1; first compound 4 µM): 0.236 | relative viability (CAL-12T; first compound 0.04 µM): 0.712 | relative viability (CAL-12T; first compound 0.1265 µM): 0.505 | relative viability (CAL-12T; first compound 0.4 µM): 0.598 | relative viability (CAL-12T; first compound 4 µM): 0.425 | relative viability (NCI-H3122; first compound 0.04 µM): 0.409 | relative viability (NCI-H3122; first compound 0.1265 µM): 0.387 | relative viability (NCI-H3122; first compound 0.4 µM): 0.365 | relative viability (NCI-H3122; first compound 4 µM): 0.301 | relative viability (NCI-H358; first compound 0.04 µM): 0.362 | relative viability (NCI-H358; first compound 0.1265 µM): 0.28 | relative viability (NCI-H358; first compound 0.4 µM): 0.371 | relative viability (NCI-H358; first compound 4 µM): 0.28 | relative viability (NCI-H1993; first compound 0.04 µM): 0.532 | relative viability (NCI-H1993; first compound 0.1265 µM): 0.497 | relative viability (NCI-H1993; first compound 0.4 µM): 0.481 | relative viability (NCI-H1993; first compound 4 µM): 0.498 | relative viability (NCI-H1666; first compound 0.04 µM): 0.57 | relative viability (NCI-H1666; first compound 0.1265 µM): 0.553 | relative viability (NCI-H1666; first compound 0.4 µM): 0.58 | relative viability (NCI-H1666; first compound 4 µM): 0.554 | relative viability (EPLC-272H; first compound 0.04 µM): 0.278 | relative viability (EPLC-272H; first compound 0.1265 µM): 0.274 | relative viability (EPLC-272H; first compound 0.4 µM): 0.307 | relative viability (EPLC-272H; first compound 4 µM): 0.271
